US20220023269A1, “Methods Of Treating Diabetes In Severe Insulin-Resistant Diabetic Subjects” (Balticgruppen Bio AB, priority 2018, published 2022)

How the values were obtained:
DIO mice = experiment: Prevention of dysglycemia and insulin resistance in DIO B6 mice (oral gavage, 8 w); format: in vivo; conditions: 100 mg/kg/day each
Protocol: MATSUDA index was calculated via: […] […] All cell lines were lysed in 0.1 M Tris-HCl, pH 6.8, 2% SDS, 10 mM sodium fluoride (SIGMA #S7920), 10 mM β-glycerophosphate (SIGMA #G6376), and 1 mM sodium vanadate (SIGMA #72060) and supernatant collected after 1 minute at 14,000 rpm. Islets (human and mouse) were lysed in 0.1 M Tris-HCl, pH 6.8, 2% SDS, protease inhibitor (Roche #04 693 124 001) and phosphatase inhibitor (Roche #04 906 837 001). […] The supernatant was collected after 2 min at 14,000 rpm. This procedure was repeated until all fat was eliminated and the supernatant was clear, at 4° C. Samples were analysed on 4-15% polyacrylamide gels. Values were normalised toward AMPKα, β-Actin, GAPDH or the respective non-phosphorylated counterpart. For RNA purification calf muscle, iWAT, interscapular BAT, and left lateral liver lobe was crushed in a pestle using liquid nitrogen before turning to respective RNA kit. RNA from liver was prepared using Total RNA isolation Nucleospin II Kit (Macherey-Nagel #740955.50). RNA from adipose tissue was prepared using RNeasy Lipid Tissue Mini kit (Qiagen #74804). RNA from calf muscle tissue was prepared using RNeasy Fibrous Tissue Mini kit (Qiagen #74704). First strand cDNA synthesis was done using SuperScript III (First-Strand Synthesis SuperMix for qRT-PCR, Invitrogen #11752-250) according to the manufacturer's instructions. Total RNA was prepared from isolated islets using RNeasy Micro Kit (Qiagen #74004) and first strand cDNA synthesis was done using Superscript III (Invitrogen #18080-051) according to the manufacturer's instructions. Quantification of mRNA expression levels was performed essentially as previously described (Reference 3).

AMPK = experiment: SAMS peptide AMPK activity assay; format: biochemical; conditions: 2.5, 5 or 10 μM
Protocol: 50 ng AMPK (Upstate #14-305) was mixed in various combination with 2.5, 5 or 10 μM test material or 20 μM AMP (Sigma #A2002) in buffer (40 mM Hepes pH7.45, 0.5 mM DTT, 2 mM MgCl2, 0.1% DMSO). In all settings 10 μg SAMS and 0.03 μCi/μl ^32P ATP (Perkin Elmer #NEG502Z500UC) were added. Total reaction volume was 25 μl, all components mixed on ice and the reaction carried out at 37° C., 15 minutes, before terminated with 5 μl phosphoric acid, and placed back on ice. 25 μl reaction were dried in on Whatman P81 filters, 50° C., 2 minutes, washed 3 times in 250 ml 1% phosphoric acid, 2 minutes, before added to 4 ml liquid scintillation cocktail (Perkin Elmer #1200-437) and counted, 1 minute, in a Wallac 1414 beta counter. The radioactivity correlates to enzyme activity.

[1] = tested on: AMPK in Wi-38 human lung fibroblast cells; experiment: AMPK activation assay in Wi-38 cells (immunoblot); format: cell-based; conditions: 2.5, 5 or 10 μM, 16 hours; dose-dependent
Protocol: (§1) All cell lines were lysed in 0.1 M Tris-HCl, pH 6.8, 2% SDS, 10 mM sodium fluoride (SIGMA #S7920), 10 mM β-glycerophosphate (SIGMA #G6376), and 1 mM sodium vanadate (SIGMA #72060) and supernatant collected after 1 minute at 14,000 rpm. Islets (human and mouse) were lysed in 0.1 M Tris-HCl, pH 6.8, 2% SDS, protease inhibitor (Roche #04 693 124 001) and phosphatase inhibitor (Roche #04 906 837 001). Right calf muscle, heart, iWAT, and interscapular BAT was crushed in a pestle using liquid nitrogen and homogenised in ice cold RIPA buffer (150 mM sodium chloride (SIGMA #S7653), 1.0% NP40 (USB), 0.5% sodium deoxycholate (SIGMA #D6750), 0.1% SDS, 50 mM Tris pH 8.0, 20 mM sodium pyrophosphate (SIGMA #71515), 10 mM sodium fluoride, 10 mM β-glycerolphosphate, 1 mM sodium vanadate and protease inhibitor cocktail (Roche #04693124001), 1 tablet/10 ml lysis buffer). The supernatant was collected after 2 min at 14,000 rpm. This procedure was repeated until all fat was eliminated and the supernatant was clear, at 4° C. Samples were analysed on 4-15% polyacrylamide gels. Values were normalised toward AMPKα, β-Actin, GAPDH or the respective non-phosphorylated counterpart.
(§2) Table 3 contains origin of cell lines, growth conditions and settings for activation of AMPK via the test material. […]

[2] = tested on: AMPK in primary mouse WT and hIAPPtg islets; experiment: AMPK activation in primary mouse WT and hIAPPtg islets; format: cell-based; conditions: 2.5, 5, 10 μM, 2 hours
Protocol: as §1, §2

## O=C(Nc1nc(=O)n(Cc2ccc(Cl)cc2)s1)c1ccc(Cl)cc1 [test material, 4-chloro-N-[2-[(4-chlorophenyl)methyl]-3-oxo-1,2,4-thiadiazol-5-yl]benzamide]
DIO mice; oral gavage, 6 w
  HFD-provoked increase in fasted glucose: averted the HFD-provoked increase
  HFD-provoked increase in fasted plasma insulin: averted the HFD-provoked increase
DIO mice; oral gavage, vs vehicle
  insulin resistance (HOMA-IR): did not develop insulin resistance
DIO mice; 8 w
  Glut1 mRNA levels in calf muscle: increased Glut1 mRNA levels
  Txnip mRNA levels in calf muscle: reduced Txnip mRNA levels
  pAMPK in calf muscle: significantly increased pAMPK
AMPK
  allosteric activation of AMPK: did not allosterically activate AMPK
[1]
  levels of pAMPK (p-T172): increased
  p-S79 ACC (pACC) levels: increased
[2]
  pAMPKα: directly increased pAMPKα
